Laboratory results published in PMC4634797, “New linear antiplasmodial peptides related to angiotensin II” (Malaria Journal, 2015).
Values joined by “and” are separate entries in the source; they are usually repeats but may differ in a detail not shown here. Equal values may be shown once. Ends that are not written are not given here. Peptide text beside a SMILES is read from it.

Columns and labels:
[1] = tested on: Plasmodium gallinaceum mature sporozoites; experiment: Effect of the peptides on salivary gland-derived Plasmodium gallinaceum sporozoites (membrane permeability, propidium iodide fluorescence); type: cell-based; conditions: 60 μmol L^−1 peptide in PBS, 37 °C, 1 h, fluorescence microscopy, mean, n = 9
Procedure: Nine-thousand P. gallinaceum mature sporozoites were recovered from the salivary glands of Ae. aegypti and incubated in 50 μL of the PBS solution, with 40 μmol L^−1 digitonin (positive control), 60 μmol L^−1 peptides or negative controls, at 37 °C for 1 h. Cell membrane integrity was then monitored using a Carl Zeiss inverted fluorescence microscope (model Observer Axio Vision A.1) coupled to an image capture Zeiss AxioCam HR digital camera (1300 × 1030 pixels resolution and 8-bit quantization) after addition of 1 μL of the propidium iodide aqueous solution (200 μmol L^−1) in 5 μL of total solution volume. Images were obtained using a 40× objective lens and a green filter effect in red. The spectral range was set with the excitation at 538 nm within the visible spectrum in order to produce orange-red fluorescence centered at 619 nm, which was processed using the Axio 4.7 software.
The effect of the peptides on sporozoites was determined in vitro by fluorescence microscopy after one hour of incubation of the parasites with each peptide in the presence of propidium iodide (see Additional file 1). The results are reported as the per cent of fluorescent sporozoites. The analyses were carried out in triplicate using three different mosquito batches and a total of nine experiments were performed (n = 9). The effects of the peptides on P. gallinaceum sporozoites in vitro assay presented 64–94 % activity.
Fig. 2 Effects of peptides on membrane permeability expressed as the per cent of fluorescent mature sporozoites (mean ± standard deviation, n = 9). […] Positive control group (+): digitonin/PBS; negative control group (−): PBS.
Nine-thousand P. gallinaceum mature sporozoites were recovered from the salivary glands of Ae. aegypti and incubated in 50 µL of the PBS solution, with 40 μmol L^–1 digitonin (positive control), 60 μmol L^–1 peptides or negative controls, at 37 °C for one hour. Cell membrane integrity was then monitored using a Carl Zeiss inverted fluorescence microscope (model Observer Axio Vision A.1) coupled to an image capture Zeiss AxioCam HR digital camera (1,300 x 1,030 pixels resolution and 8-bit quantization) after addition of 1 µL of the propidium iodide aqueous solution (200 µmol L^–1) in 5 μL of total solution volume. Images were obtained using a 40X objective lens and a green filter effect in red. The spectral range was set with the excitation at 538 nm within the visible spectrum in order to produce orange-red fluorescence centered at 619 nm, which was processed using the Axio 4.7 software.

[2] = tested on: Plasmodium falciparum W2 strain, erythrocytic cycle; conditions: read-out: IC50, suppression of erythrocytic invasion (rings formed) by P. falciparum; seven concentrations 10^−4 to 10^−14 mol L^−1, 24 h; non-linear regression, GraphPad Prism; n = 2
From the text: The erythrocytic cycle of Plasmodiumfalciparum was maintained in vitro by culturing W2 strains in 1640 medium, supplemented with A-type human blood and serum, as described in Saraiva et al. [6].
Sorbitol solution (5 %) was used to synchronize parasite cultures into the ring stage, according to Lambros and Vanderberg [18]. The resistant ring-forms are subsequently maintained in culture as described above. Erythrocytes infected by parasite mature forms at 2–3 % parasitaemia and 5 % haematocrit were kept in the presence or absence of 10^−8 mol L^−1 synthetic peptides, for 24 h. Invasion is assessed by the appearance of new ring forms. The percentage of invasion was determined by optical microscopy (1000× magnification). It represents the total number of cells infected by rings in 100 erythrocytes in at least ten random microscopic fields. The invasion assay was carried out using two different cell suspension and generated equivalent results
The IC50 values were calculated by using GraphPad Prism Software version 5.00 for Windows (GraphPad, San Diego, California, USA). Parameters: Nonlinear Regression; log (inhibitor) vs. response equation was chosen at least square (ordinary) fit method was applied. […]

[3] = not given; remark: listed apart in the source
[4] = not given; remark: listed apart in the source
[5] = not given; remark: listed apart in the source
[6] = tested on: non-infected human erythrocytes; type: cell-based
Procedure: The MHC of the peptides were assessed through the measurement of haemoglobin released by non-infected human erythrocytes in the presence of increasing concentrations of the compounds in the same culture conditions of the invasion assay. As described by Jin-Jiang, MHC is the highest peptide concentration that causes no detectable release of haemoglobin.

[7] = tested on: uninfected human erythrocytes; type: cell-based
Procedure: The haemolytic effect of analogs 5 and 6 was determined in uninfected erythrocytes. Cells were maintained in the same culture conditions in the presence of 10^−8 mol L^−1 peptides, for 24 h. Erythrocytes were centrifuged at 900g/8 min and free haemoglobin in the supernatant was assessed by spectrophotometer at 550 nm. Untreated cells were used as negative control to discount non-specific haemolysis. The haemolytic activity was expressed as percentage of the control. This positive control (100 % haemolysis) was prepared by treating the erythrocytes with distilled water.
The effects of the Ang II, peptides 5 and 6 in the erythrocyte human cells to define the haemolysis were seeded in a 96-well plate in the absence (control) or presence of 10^−8 mol L^−1 of the analogues, as already described.
Fig. 5 Haemolytic assay of human red blood cells were treated with distilled water; uninfected erythrocytes were kept in the same conditions used in the invasion assay with a control and each peptides tested (10^−8 mol L^−1), at 37 °C for 24 h. After incubation, the supernatant was collected, clarified at 900 g/8 min and the haemoglobin content was detected in a spectrophotometer at […]. Triple asterisk statistically significant compared with distilled water value p < 0.05.

[8] = tested on: P. gallinaceum sporozoite; conditions: cited from earlier work; for biological (antiplasmodial) activity on P. gallinaceum sporozoites: Ala-replacement / deletion analogues and short peptides; for antiplasmodial activity against P. gallinaceum sporozoite: lactam bridged Ang II analogues
From the text: Chamlian et al. studied some lactam bridged Ang II analogues, which presented Asp and Lys insertion in order to restrict the peptide. […] They replaced each amino acid by Ala or deleted the residues of the native Ang II molecule. The biological activities of the analogues […]and […]on the P. gallinaceum sporozoites were equipotent to native Ang II [4], 75 and 79 % of activity, respectively.

[9] = tested on: P. falciparum red blood cells; conditions: cited from earlier work
From the text: Saraiva et al. described studies that aimed to identify the molecular mechanisms induced by Ang II, which are involved in the modulation of P. falciparum erythrocytic cycle. […] Torres et al. studied the influence of restrict peptides in P. falciparum red blood cells.

[10] = not given; remark: listed apart in the source

Compound: RYHIPF [Peptide 4, [Ile^4,His^3]-des-Asp^1,Val^3-AII]
- per cent of fluorescent mature sporozoites (Spz Fluorescence, antiplasmodial activity) [1]: 77%

Compound: DRVYPF [Peptide 2, des-Ile^5,His^6-AII]
- per cent of fluorescent mature sporozoites (Spz Fluorescence, antiplasmodial activity) [1]: 64%

Compound: CC[C@H](C)[C@H](NC(=O)[C@@H](N)C(C)C)C(=O)N1CCC[C@H]1C(=O)N[C@@H](Cc1ccccc1)C(=O)O [Peptide 6, des-Asp^1,Arg^2,Tyr^4,His^6-AII] (H-VIPF-OH)
- IC50 [2]: 0.62 nM
- secondary conformation α-helix: 9.6% and 9.7% (2×)
- secondary conformation β-turn [3]: 21.7%
- secondary conformation random coil [4]: 40.4%
- secondary conformation parallel [5]: 13%
- MHC [6]: 10^−6 M

Compound: CC[C@H](C)[C@H](NC(=O)[C@H](Cc1ccc(O)cc1)NC(=O)[C@@H](NC(=O)[C@H](CCCNC(=N)N)NC(=O)[C@@H](N)CC(=O)O)C(C)C)C(=O)N[C@@H](Cc1cnc[nH]1)C(=O)N1CCC[C@H]1C(=O)N[C@@H](Cc1ccccc1)C(=O)O [Ang II, angiotensin II]
- haemolytic activity (% of distilled water control) [7]: did not present hemolytic effects
- MHC [6]: 10^−5 M

Compound: DRVYIAPF [Ala-replacement Ang II analogue from earlier work]
- biological (antiplasmodial) activity on P. gallinaceum sporozoites [8]: 79%

Compound: DRVYIDHKPF (also: sidechain bridge or staple (positions not given here)) [VC-12, lactam bridged Ang II analogue of Chamlian et al]
- antiplasmodial activity against P. gallinaceum sporozoite [8]: 87%

Compound: DRVYHIPF [Peptide 1, [Ile^6,His^5]-AII]
- per cent of fluorescent mature sporozoites (Spz Fluorescence, antiplasmodial activity) [1]: 94%

Compound: CRDCVYIHPF (cysteine pairing not given here) [restrict peptide of Torres et al]
- reduction of the parasitaemia by restrict peptides [9]: active in two different parasite species

Compound: [2-Nal^3]- des-Asp^1,Arg^2,Tyr^4,His^6-AII [Peptide 9]
- per cent of fluorescent mature sporozoites (Spz Fluorescence, antiplasmodial activity) [1]: 70%

Compound: DRVYAHPF [Ala-replacement Ang II analogue from earlier work]
- biological (antiplasmodial) activity on P. gallinaceum sporozoites [8]: 75%

Compound: [2-Nal^4]- des-Asp^1,Arg^2,Tyr^4,His^6-AII [Peptide 10]
- per cent of fluorescent mature sporozoites (Spz Fluorescence, antiplasmodial activity) [1]: 73%

Compound: Val-Tyr-Ile-His-Pro [short peptide, Ferreira et al]
- biological (antiplasmodial) activity on P. gallinaceum sporozoites [8]: about 80%

Compound: DRVYDIHKPF (also: sidechain bridge or staple (positions not given here)) [VC-26, lactam bridged Ang II analogue of Chamlian et al]
- antiplasmodial activity against P. gallinaceum sporozoite [8]: 73%

Compound: Ile-His-Pro-Phe [short peptide, Ferreira et al]
- biological (antiplasmodial) activity on P. gallinaceum sporozoites [8]: about 80%

Compound: Val-Tyr-Ile-His-Pro-Phe (VYIHPF; printed: Val-Tyr-Ile-His-Pro-Phe) [short peptide, Ferreira et al]
- biological (antiplasmodial) activity on P. gallinaceum sporozoites [8]: about 80%

Compound: Asp-Arg-Val-Tyr-Ile-His-Pro [deletion analogue of Ang II, Ferreira et al]
- biological (antiplasmodial) activity on P. gallinaceum sporozoites [8]: about 50%

Compound: N[C@@H](Cc1ccc(O)cc1)C(=O)N[C@@H](Cc1c[nH]cn1)C(=O)N1CCC[C@H]1C(=O)N[C@@H](Cc1ccccc1)C(=O)O [Peptide 5, des-Asp^1,Arg^2,Val^3,Ile^5-AII] (H-YHPF-OH)
- IC50 [2]: 0.89 nM
- secondary conformation α-helix: 9.7% (2×) and 9.6%
- secondary conformation β-turn [3]: 25.7%
- secondary conformation random coil [4]: 40.6% and 44.3% and 40.4%
- secondary conformation parallel [5]: 12.1% and 13.4%
- secondary conformation antiparallel [10]: 12% and 13.9%
- MHC [6]: 10^−5 M

Compound: Arg-Val-Tyr-Ile-His-Pro-Phe [deletion analogue of Ang II, Ferreira et al]
- biological (antiplasmodial) activity on P. gallinaceum sporozoites [8]: about 50%
